Test results taken from patent US7432259B2, “Spiro-piperidine derivatives” (Hoffmann-La Roche Inc., priority 2006, dated 2008).

Each molecule was assayed against T1, human V1a receptor (Homo sapiens, UniProt P37288) (assay: human V1a receptor binding study (3H-Vasopressin SPA, membranes of transfected HEK293 cells)). Details: membranes of HEK293 cells transiently transfected with human V1a receptor, Ki by Cheng-Prussoff equation, read-out: pKi(hV1a) (converted).
T1 construct: expressed in transfected cells; host or cells: HEK293 cells, transiently transfected; cell membranes used
T1 sequence (P37288 whole entry): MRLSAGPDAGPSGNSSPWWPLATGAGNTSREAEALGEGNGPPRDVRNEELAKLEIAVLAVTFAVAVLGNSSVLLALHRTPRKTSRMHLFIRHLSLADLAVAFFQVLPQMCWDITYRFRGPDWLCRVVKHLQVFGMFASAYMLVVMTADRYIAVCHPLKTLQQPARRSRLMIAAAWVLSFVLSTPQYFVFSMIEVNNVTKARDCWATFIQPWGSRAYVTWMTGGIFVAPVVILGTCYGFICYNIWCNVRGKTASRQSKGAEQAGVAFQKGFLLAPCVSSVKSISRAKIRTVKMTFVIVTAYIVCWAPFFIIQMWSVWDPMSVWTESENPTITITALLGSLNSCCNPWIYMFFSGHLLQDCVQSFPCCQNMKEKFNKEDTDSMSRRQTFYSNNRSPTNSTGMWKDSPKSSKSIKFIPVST
Method: The human V1a receptor was cloned by RT-PCR from total human liver RNA. The coding sequence was subcloned in an expression vector after sequencing to confirm the identity of the amplified sequence. […] Cell membranes were prepared from HEK293 cells transiently transfected with the expression vector and grown in 20 liter fermenters with the following protocol.
50 g of cells were resuspended in 30 ml freshly prepared ice cold Lysis buffer (50 mM HEPES, 1 mM EDTA, 10 mM MgCl2 adjusted to pH=7.4+complete cocktail of protease inhibitor (Roche Diagnostics)). Homogenized with Polytron for 1 min and sonicated on ice for 2×2 minutes at 80%, intensity (Vibracell sonicator). The preparation was centrifuged 20 min at 500 g at 4° C., the pellet was discarded and the supernatant centrifuged 1 hour at 43,000 g at 4° C. (19,000 rpm). The pellet was resuspended in 12.5 ml Lysis buffer+12.5 ml Sucrose 20% and homogenized using a Polytron for 1-2 min. The protein concentration was determined by the Bradford method and aliquots were stored at −80° C. until use. For binding studies 60 mg Yttrium silicate SPA beads (Amersham) were mixed with an aliquot of membrane in binding buffer (50 mM Tris, 120 mM NaCl, 5 mM KCl, 2 mM CaCl2, 10 mM MgCl2) for 15 minutes with mixing. 50 ul of bead/membrane mixture was then added to each well of a 96 well plate, followed by 50 ul of 4 nM 3H-Vasopressin (American Radiolabeled Chemicals). For total binding measurement 100 ul of binding buffer were added to the respective wells, for non-specific binding 100 ul of 8.4 mM cold vasopressin and for compound testing 100 ul of a serial dilution of each compound in 2% DMSO. The plate was incubated 1 h at room temperature, centrifuged 1 min at 1000 g and counted on a Packard Top-Count. Non-specific binding counts were subtracted from each well and data was normalized to the maximum specific binding set at 100%. To calculate an IC 50 the curve was fitted using a non-linear regression model (XLfit) and the Ki was calculated using the Cheng-Prussoff equation.

Row | Structure (SMILES) | Ki [nM]
1 | N#CCn1c(C(=O)N2CCC3(CC2)OC(=O)Nc2ccccc23)cc2cc(Cl)ccc21 [Example 16, {5-Chloro-2-[(2-oxo-1,2-dihydro-1′H-spiro[3,1-benzoxazine-4,4′-piperidin]-1′-yl)carbonyl]-1H-indol-1-yl}acetonitrile] | 10.6
2 | Cn1c(C(=O)N2CCC3(CC2)OC(=O)Nc2ccccc23)cc2cc(Cl)ccc21 [Example 14, 1′-[(5-Chloro-1-methyl-1H-indol-2-yl)carbonyl]spiro[3,1-benzoxazine-4,4′-piperidin]-2(1H)-one] | 29.9
3 | N#CCn1c(C(=O)N2CCC3(CC2)OC(=O)Nc2ccccc23)cc2ccccc21 [Example 15, {2-[(2-Oxo-1,2-dihydro-1′H-spiro[3,1-benzoxazine-4,4′-piperidin]-1′-yl)carbonyl]-1H-indol-1-yl}acetonitrile] | 60.3
4 | N#CCn1c(C(=O)N2CCC3(CC2)CC(=O)Nc2ccc(Br)cc23)cc2cc(Cl)ccc21 [Example 7, {2-[(6′-Bromo-2′-oxo-2′,3′-dihydro-1H,1′H-spiro[piperidine-4,4′-quinolin]-1-yl)carbonyl]-5-chloro-1H-indol-1-yl}acetonitrile] | 47.3
